Drawing on US10329289B2, “6,7-dihydro-5H-pyrrolo[3,4-B]pyridin-5-one allosteric modulators of the M4 muscarinic acetylcholine receptor” (Merck Sharp & Dohme Corp., priority 2015, dated 2019), this text covers EC50 for 32 molecules.

Each structure is given as a SMILES string.

This assay concerns the target T1, human M4 muscarinic acetylcholine receptor (Homo sapiens, UniProt P08173).
T1 construct: expressed in transfected cells; host or cells: CHO-K1
T1 sequence (P08173 1-479): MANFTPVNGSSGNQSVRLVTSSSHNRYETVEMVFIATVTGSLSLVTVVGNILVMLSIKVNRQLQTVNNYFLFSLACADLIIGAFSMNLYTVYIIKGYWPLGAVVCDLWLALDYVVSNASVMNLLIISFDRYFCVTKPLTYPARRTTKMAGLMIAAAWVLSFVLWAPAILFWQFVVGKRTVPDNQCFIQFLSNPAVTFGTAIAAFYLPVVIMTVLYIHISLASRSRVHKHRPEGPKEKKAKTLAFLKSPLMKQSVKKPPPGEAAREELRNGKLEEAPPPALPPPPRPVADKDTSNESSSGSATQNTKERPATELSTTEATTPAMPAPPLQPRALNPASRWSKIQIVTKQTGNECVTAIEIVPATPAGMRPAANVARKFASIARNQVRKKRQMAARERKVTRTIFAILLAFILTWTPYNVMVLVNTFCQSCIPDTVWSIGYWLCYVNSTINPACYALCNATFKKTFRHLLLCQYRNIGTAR
Description: human FLIPR-based M4 PAM assay (Ca2+ mobilization, CHO-K1 cells with human M4 receptor and Gαqi5). The assay is classed as cell-based. Conditions: acetylcholine at 20% of maximum response, read-out: M4 PAM IP. The gist of the method: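 Calcium-mobilization (FLIPR) readout in dye-loaded CHO-K1 cells co-expressing human M4 receptor and Gαqi5. Potentiation measured against acetylcholine at a concentration giving 20% of maximal response, with an optional 70% addition; the reported value is the curve inflection point from a 4-parameter logistic fit.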
As for `COc1ccc(O[C@@H]2CCN(c3nc4c(cc3C)C(=O)N(C)[C@@H]4CO)C[C@H]2F)cn1` [Example 282A, (S)-2-((3R,4R)-3-fluoro-4-((6-methoxypyridin-3-yl)oxy)piperidin-1-yl)-7-(hydroxymethyl)-3,6-dimethyl-6,7-dihydro-5H-pyrrolo[3,4-b]pyridin-5-one], the EC50 amounted to 38 nM.
The figure for `COc1ccc(OC2CCN(c3nc4c(cc3C)C(=O)NC4=O)CC2)cn1` [Example 297, 2-(4-((6-Methoxypyridin-3-yl)oxy)piperidin-1-yl)-3-methyl-5H-pyrrolo[3,4-b]pyridine-5,7(6H)-dione] is 22 nM.
The figure for `Cc1c(N2CC[C@@H](Oc3cnc4c(c3)COC4)[C@@H](F)C2)nc2c(c1C)C(=O)NC2` [Example 165A, 2-((3S,4R)-4-((5,7-dihydrofuro[3,4-b]pyridin-3-yl)oxy)-3-fluoropiperidin-1-yl)-3,4-dimethyl-6,7-dihydro-5H-pyrrolo[3,4-b]pyridin-5-one] is 83 nM; for `CCN1Cc2nc(N3CC[C@@H](Oc4ccccc4)[C@@H](F)C3)c(C)cc2C1=O` [Example 244, 6-ethyl-2-((3S,4R)-3-fluoro-4-phenoxypiperidin-1-yl)-3-methyl-6,7-dihydro-5H-pyrrolo[3,4-b]pyridin-5-one] it is 32 nM; for `CCC1(COC2CCN(c3nc4c(cc3C)C(=O)NC4)CC2)CC1` [Example 186, 2-(4-((1-ethylcyclopropyl)meth-oxy)piperidin-1-yl)-3-methyl-6,7-dihydro-5H-pyrrolo[3,4-b]pyridin-5-one] it is 77 nM.
Take `Cc1cc2c(nc1N1CCC(Oc3ccc4[nH]ncc4c3)CC1)CNC2=O` [Example 167, 2-(4-((1H-indazol-5-yl)oxy)piperidin-1-yl)-3-methyl-6,7-dihydro-5H-pyrrolo[3,4-b]pyridin-5-one]: the EC50 worked out at 14 nM.
The same measure for `Cc1cc2c(nc1N1CC[C@@H](Oc3ccc(F)cc3)[C@@H](F)C1)CN(CCO)C2=O` [Example 262, 2-((3S,4R)-3-fluoro-4-(4-fluorophenoxy)piperidin-1-yl)-6-(2-hydroxyethyl)-3-methyl-6,7-dihydro-5H-pyrrolo[3,4-b]pyridin-5-one]: 43 nM; for `COc1ccc(OC2CCN(c3nc4c(cc3C)C(=O)N(C)[C@@]4(C)CO)CC2)cn1` (single isomer, unassigned) [Example 287A]: 3870 nM.
The figure for `Cc1cc2c(nc1N1CCC(Oc3ccc4c(ccn4C)c3)CC1)CNC2=O` [Example 27, 3-methyl-2-(4-((1-methyl-1H-indol-5-yl)oxy)piperidin-1-yl)-6,7-dihydro-5H-pyrrolo[3,4-b]pyridin-5-one] is 43 nM; for `CCc1cc2c(nc1N1CCC(Oc3ccc4c(c3)CCOC4)CC1)CNC2=O` [Example 200A, 3-ethyl-2-(4-(isochroman-6-yloxy)piperidin-1-yl)-6,7-dihydro-5H-pyrrolo[3,4-b]pyridin-5-one] it is 58 nM; for `Cc1cc2c(nc1N1CCC(Oc3ccc4c(c3)CC(C)(C)O4)CC1)CNC2=O` [Example 321, 2-(4-((2,2-Dimethyl-2,3-dihydrobenzofuran-5-yl)oxy)piperidin-1-yl)-3-methyl-6,7-dihydro-5H-pyrrolo[3,4-b]pyridin-5-one] it is 193 nM.
The same measure for `Cc1cc2c(nc1N1CCC(Oc3ccccc3)CC1)[C@@H](CO)N(C)C2=O` [Example 276, (S)-7-(hydroxymethyl)-3,6-dimethyl-2-(4-phenoxypiperidin-1-yl)-6,7-dihydro-5H-pyrrolo[3,4-b]pyridin-5-one]: 145 nM.
`Cc1cc2c(nc1N1CCC(Oc3ccc(OCC(F)(F)F)nc3)CC1)CNC2=O` [Example 120, 3-methyl-2-(4-((6-(2,2,2-trifluoroethoxy)pyridin-3-yl)oxy)piperidin-1-yl)-6,7-dihydro-5H-pyrrolo[3,4-b]pyridin-5-one]: the EC50 was found to be 256 nM.
With `CCOc1ccc(OC2CCN(c3nc4c(cc3C)C(=O)N(C)[C@@H]4CO)CC2)cn1` [Example 286, (S)-2-(4-((6-ethoxypyridin-3-yl)oxy)piperidin-1-yl)-7-(hydroxymethyl)-3,6-dimethyl-6,7-dihydro-5H-pyrrolo[3,4-b]pyridin-5-one], the EC50 was determined as 38 nM.
The figure for `Cc1cc2c(nc1N1CCC(Oc3cnc4[nH]ccc4c3)CC1)CNC2=O` [Example 70, 2-(4-((1H-pyrrolo[2,3-b]pyridin-5-yl)oxy)piperidin-1-yl)-3-methyl-6,7-dihydro-5H-pyrrolo[3,4-b]pyridin-5-one] is 79 nM; for `Cc1cc2c(nc1N1CCC(OC[C@@H]3C[C@H]3C(F)(F)F)CC1)CNC2=O` (single isomer, unassigned) [Example 3A, 3-methyl-2-(4-(((trans)-2-(trifluoromethyl)cyclopropyl)methoxy)piperidin-1-yl)-6,7-dihydro-5H-pyrrolo[3,4-b]pyridin-5-one] it is 637 nM.
Take `Cc1cc2c(nc1N1CCC(OCC(O)C(F)(F)F)CC1)CNC2=O` (single isomer, unassigned) [Example 181B]: the EC50 is 183 nM.
The same measure for `Cc1cc2c(nc1N1CC[C@H](Oc3ccc4c(cnn4C)c3)[C@@H](F)C1)CNC2=O` [Example 24, 2-((3S,4S)-3-fluoro-4-((1-methyl-1H-indazol-5-yl)oxy)piperidin-1-yl)-3-methyl-6,7-dihydro-5H-pyrrolo[3,4-b]pyridin-5-one]: 167 nM.
The same measure for `CCc1cc2c(nc1N1CCC(OCC3(C)CC3)CC1)CNC2=O` [Example 229, 3-ethyl-2-(4-((1-methylcyclopropyl)methoxy)piperidin-1-yl)-6,7-dihydro-5H-pyrrolo[3,4-b]pyridin-5-one]: 36 nM.
The figure for `COc1cccc(OC2CCN(c3nc4c(cc3C)C(=O)NC4)CC2)c1` [Example 51, 2-(4-(3-methoxyphenoxy)piperidin-1-yl)-3-methyl-6,7-dihydro-5H-pyrrolo[3,4-b]pyridin-5-one] is 51 nM; for `Cc1cc2c(nc1N1CCC(Oc3cnc4c(c3)CC[C@@H]4O)CC1)CNC2=O` (single isomer, unassigned) [Example 324C] it is 1140 nM; for `COCCOc1ccc(O[C@@H]2CCN(c3nc4c(cc3C)C(=O)NC4)C[C@H]2F)cn1` [Example 60, 2-((3R,4R)-3-fluoro-4-((6-(2-methoxyethoxy)pyridin-3-yl)oxy)piperidin-1-yl)-3-methyl-6,7-dihydro-5H-pyrrolo[3,4-b]pyridin-5-one] it is 207 nM.
With `Cc1cc2c(nc1N1CCC(Oc3ccc4c(cnn4CCO)c3)CC1)CNC2=O` [Example 371, 2-(4-((1-(2-Hydroxyethyl)-1H-indazol-5-yl)oxy)piperidin-1-yl)-3-methyl-6,7-dihydro-5H-pyrrolo[3,4-b]pyridin-5-one], the EC50 stood at 100 nM.
The figure for `CCOc1ccc(OC2CCN(c3nc4c(cc3C)C(=O)N(CCO)C4)CC2)cn1` [Example 254, 2-(4-((6-ethoxypyridin-3-yl)oxy)piperidin-1-yl)-6-(2-hydroxyethyl)-3-methyl-6,7-dihydro-5H-pyrrolo[3,4-b]pyridin-5-one] is 69 nM; for `CCc1cc2c(nc1N1CCC(Oc3ccc4c(c3)C[C@H](O)C4)CC1)CNC2=O` [Example 166A, (R)-3-ethyl-2-(4-((2-hydroxy-2,3-dihydro-1H-inden-5-yl)oxy)piperidin-1-yl)-6,7-dihydro-5H-pyrrolo[3,4-b]pyridin-5-one] it is 61 nM.
Regarding `Cc1cc2c(nc1N1CCC(Oc3ccc(N4CCC4)nc3)CC1)CNC2=O` [Example 105, 2-(4-((6-(azetidin-1-yl)pyridin-3-yl)oxy)piperidin-1-yl)-3-methyl-6,7-dihydro-5H-pyrrolo[3,4-b]pyridin-5-one], the EC50 was determined as 104 nM.
The figure for `COc1ccc(OC2CCN(c3nc4c(cc3C(F)F)C(=O)NC4)CC2)cn1` [Example 307, 3-(Difluoromethyl)-2-(4-((6-methoxypyridin-3-yl)oxy)piperidin-1-yl)-6,7-dihydro-5H-pyrrolo[3,4-b]pyridin-5-one] is 1310 nM; for `COc1ncc(OC2CCN(c3nc4c(cc3C)C(=O)NC4)CC2)cc1C` [Example 115, 2-(4-((6-methoxy-5-methylpyridin-3-yl)oxy)piperidin-1-yl)-3-methyl-6,7-dihydro-5H-pyrrolo[3,4-b]pyridin-5-one] it is 119 nM; for `Cc1cc2c(nc1N1CCC(OCC3(C)CC3C#N)CC1)CNC2=O` (single isomer, unassigned) [Example 191B] it is 30000 nM.
The figure for `COCc1ccc(OC2CCN(c3nc4c(cc3C)C(=O)NC4)CC2)cn1` [Example 203, 2-(4-((6-(methoxymethyl)pyridin-3-yl)oxy)piperidin-1-yl)-3-methyl-6,7-dihydro-5H-pyrrolo[3,4-b]pyridin-5-one] is 531 nM; for `Cc1c(N2CC[C@@H](Oc3ccc4c(c3)COC4)[C@@H](F)C2)nc2c(c1C)C(=O)N(CCO)C2` [Example 261, 2-((3S,4R)-4-((1,3-dihydro-2-benzofuran-5-yl)oxy)-3-fluoropiperidin-1-yl)-6-(2-hydroxyethyl)-3,4-dimethyl-6,7-dihydro-5H-pyrrolo[3,4-b]pyridin-5-one] it is 39 nM.
The figure for `Cc1cc2c(nc1N1CCC(Oc3ccccc3F)CC1)CNC2=O` [Example 75, 2-(4-(2-fluorophenoxy)piperidin-1-yl)-3-methyl-6,7-dihydro-5H-pyrrolo[3,4-b]pyridin-5-one] is 236 nM.
